The structures appear in SMILES notation.

For one test, the target named is T1, Tdp1 (Homo sapiens, UniProt Q9NUW8).
T1 construct: made in house
T1 sequence (Q9NUW8 whole entry): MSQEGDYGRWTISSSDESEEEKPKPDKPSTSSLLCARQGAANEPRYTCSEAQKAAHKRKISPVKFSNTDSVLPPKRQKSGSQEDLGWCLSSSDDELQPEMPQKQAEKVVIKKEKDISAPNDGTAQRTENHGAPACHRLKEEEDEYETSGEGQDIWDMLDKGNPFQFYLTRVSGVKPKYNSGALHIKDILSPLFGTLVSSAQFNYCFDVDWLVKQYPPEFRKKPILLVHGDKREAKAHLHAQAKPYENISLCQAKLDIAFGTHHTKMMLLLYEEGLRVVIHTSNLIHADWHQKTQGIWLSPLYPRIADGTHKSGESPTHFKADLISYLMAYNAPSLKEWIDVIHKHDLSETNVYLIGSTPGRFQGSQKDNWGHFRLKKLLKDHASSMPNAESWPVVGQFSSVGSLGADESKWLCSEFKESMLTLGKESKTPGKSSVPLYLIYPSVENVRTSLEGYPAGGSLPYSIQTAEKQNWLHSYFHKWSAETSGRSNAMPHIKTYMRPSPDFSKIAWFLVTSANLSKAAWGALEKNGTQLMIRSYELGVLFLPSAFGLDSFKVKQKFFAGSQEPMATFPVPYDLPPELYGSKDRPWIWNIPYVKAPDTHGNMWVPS
The test can be described thus: Real-time detection of Tdp1 activity (FAM/BHQ1 oligonucleotide biosensor). It counts as biochemical. The settings on record: Tdp1 inhibition, 6-point concentration response curve. How it is done: A previously designed, real-time, hexadecameric oligonucleotide biosensor with 5(6)-carboxyfluorescein (FAM) at the 5′ end and fluorophore quencher BHQ1 (Black Hole Quencher-1) at the 3′-end was used to determine the inhibitory properties of the new compounds.
Real-Time Detection of Tdp1 Activity. The Tdp1 activity measurements were carried out as described. […] Tdp1 inhibition was calculated by comparing the rate of increase in fluorescence in the presence of the compound to that of DMSO control wells. IC50 values were determined using a 6-point concentration response curve. The data were imported into the MARS Data Analysis 2.0 program (BMG LABTECH), and the slope during the linear phase (here data from 0 to 7 min) was calculated.
`CC(C)=CCC/C(C)=C/COc1ccc2c(-c3ccccc3)cc(=O)oc2c1` [3aa, (E)-7-(3,7-Dimethylocta-2,6-dienyloxy)-4-phenyl-2H-chromen-2-one]: the IC50 turned out to be 490 ± 140 nM.

Regarding `CC1(C)[C@H]2CC=C(CCOc3ccc4c(-c5ccccc5)cc(=O)oc4c3)[C@@H]1C2` [3ab, 7-(2-((1R,5S)-6,6-Dimethylbicyclo[3 1.1]hept-2-en-2-yl)ethoxy)-4-phenyl-2H-chromen-2-one], the IC50 was 410 ± 120 nM. In the case of `CC1(C)[C@H]2CC=C(COc3ccc4c(-c5ccccc5)cc(=O)oc4c3)[C@@H]1C2` [3ac, 7-(((1R,5S)-6,6-Dimethylbicyclo[3.1.1]hept-2-en-2-yl)methoxy)-4-phenyl-2H-chromen-2-one], half-maximal inhibition (IC50) was put at 460 ± 160 nM. Take `CC1(C)[C@@H]2CC=C(COc3ccc4c(-c5ccccc5)cc(=O)oc4c3)[C@H]1C2` [3ad, 7-(((1S,5R)-6,6-Dimethylbicyclo[3.1.1]hept-2-en-2-yl)methoxy)-4-phenyl-2H-chromen-2-one]: the IC50 was determined as 480 ± 110 nM.

With `CC1(C)[C@H]2CC=C(CCOc3ccc4c(-c5ccc(F)cc5)cc(=O)oc4c3)[C@@H]1C2` [3bb, 7-(2-((1R,5S)-6,6-Dimethylbicyclo[3.1.1]hept-2-en-2-yl)ethoxy)-4-(4-fluorophenyl)-2H-chromen-2-one], the half-maximal inhibitory concentration (IC50) amounted to 7500 ± 700 nM. Against the preceding compound, the IC50 is about 16-fold higher.

In the case of `CC1(C)[C@H]2CC=C(COc3ccc4c(-c5ccc(F)cc5)cc(=O)oc4c3)[C@@H]1C2` [3bc, 7-(((1R,5S)-6,6-Dimethylbicyclo[3.1.1]hept-2-en-2-yl)methoxy)-4-(4-fluorophenyl)-2H-chromen-2-one], the IC50 stood at 990 ± 300 nM. This IC50 is about 7.6-fold lower than that of the compound before. With `CC1(C)[C@@H]2CC=C(COc3ccc4c(-c5ccc(F)cc5)cc(=O)oc4c3)[C@H]1C2` [3bd, 7-(((1S,5R)-6,6-Dimethylbicyclo[3.1.1]hept-2-en-2-yl)methoxy)-4-(4-fluorophenyl)-2H-chromen-2-one], the IC50 was determined as 1030 ± 580 nM. In turn, `CC(C)=CCC/C(C)=C/COc1ccc2c(-c3ccc(Br)cc3)cc(=O)oc2c1` [3ca, (E)-4-(4-Bromophenyl)-7-(3,7-dimethylocta-2,6-dienyloxy)-2H-chromen-2-one] yielded an IC50 of 900 ± 370 nM. As to `CC1(C)[C@H]2CC=C(CCOc3ccc4c(-c5ccc(Br)cc5)cc(=O)oc4c3)[C@@H]1C2` [3cb, 4-(4-Bromophenyl)-7-(2-((1R,5S)-6,6-dimethylbicyclo[3.1.1]hept-2-en-2-yl)ethoxy)-2H-chromen-2-one], the IC50 was 590 ± 70 nM.

`CC1(C)[C@H]2CC=C(COc3ccc4c(-c5ccc(Br)cc5)cc(=O)oc4c3)[C@@H]1C2` [3cc, 4-(4-Bromophenyl)-7-(((1R,5S)-6,6-dimethylbicyclo[3.1.1]hept-2-en-2-yl)methoxy)-2H-chromen-2-one]: the half-maximal inhibitory concentration (IC50) came out at 3230 ± 350 nM.

Regarding `CC1(C)[C@@H]2CC=C(COc3ccc4c(-c5ccc(Br)cc5)cc(=O)oc4c3)[C@H]1C2` [3cd, 4-(4-Bromophenyl)-7-(((1S,5R)-6,6-dimethylbicyclo[3.1.1]hept-2-en-2-yl)methoxy)-2H-chromen-2-one], the IC50 turned out to be 430 ± 50 nM. As to `COc1ccc(-c2cc(=O)oc3cc(OCCC4=CC[C@H]5C[C@@H]4C5(C)C)ccc23)cc1` [3db, 7-(2-((1R,5S)-6,6-Dimethylbicyclo[3.1.1]hept-2-en-2-yl)ethoxy)-4-(4-methoxyphenyl)-2H-chromen-2-one], the midpoint of inhibition, the IC50, lay at 910 ± 130 nM.

`COc1ccc(-c2cc(=O)oc3cc(OCC4=CC[C@H]5C[C@@H]4C5(C)C)ccc23)cc1` [3dc, 7-(((1R,5S)-6,6-Dimethylbicyclo[3.1.1]hept-2-en-2-yl)methoxy)-4-(4-methoxyphenyl)-2H-chromen-2-one] gave an IC50 of 590 ± 150 nM. In turn, `COc1ccc(-c2cc(=O)oc3cc(OCC4=CC[C@@H]5C[C@H]4C5(C)C)ccc23)cc1` [3dd, 7-(((1S,5R)-6,6-Dimethylbicyclo[3.1.1]hept-2-en-2-yl)methoxy)-4-(4-methoxyphenyl)-2H-chromen-2-one] showed a half-inhibitory concentration (IC50) of 590 ± 60 nM.

In the case of `O=c1cc(-c2ccc(Br)cc2)c2ccc(OCc3ccccc3)cc2o1` [10c, 7-(Benzyloxy)-4-(4-bromophenyl)-2H-chromen-2-one], the IC50 was 2400 ± 800 nM. Consider `COc1ccc(-c2cc(=O)oc3cc(OCc4ccccc4)ccc23)cc1` [10d, 7-(Benzyloxy)-4-(4-methoxyphenyl)-2H-chromen-2-one], for which the IC50 was 3310 ± 980 nM.

Staying with this test, now noted: compared with the other derivatives of the series.
For the compound `CC1(C)[C@H]2CC=C(COc3ccc4c(-c5ccccc5)cc(=O)oc4c3)[C@@H]1C2` [3ac, 7-(((1R,5S)-6,6-Dimethylbicyclo[3.1.1]hept-2-en-2-yl)methoxy)-4-phenyl-2H-chromen-2-one], the “Tdp1 inhibitory activity (in words)” value is listed as “slightly less active”. As for `CC1(C)[C@H]2CC=C(CCOc3ccc4c(-c5ccc(F)cc5)cc(=O)oc4c3)[C@@H]1C2` [3bb, 7-(2-((1R,5S)-6,6-Dimethylbicyclo[3.1.1]hept-2-en-2-yl)ethoxy)-4-(4-fluorophenyl)-2H-chromen-2-one], the “Tdp1 inhibitory activity (in words)” value is on record as “markedly lower activity”.

A further test concerns Krebs-2 carcinoma. The test can be described thus: Influence on antitumor effect of tpc, Krebs-2 ascites tumor model. Type of test: in vivo, mice. The settings on record: tpc only, 0.5 mg/kg i.p. (group 2); control 1750 million per mouse. The procedure: A study of the influence of 3ba on the antitumor effect of tpc (topotecan) was performed using a murine Krebs-2 carcinoma model. An ascitic tumor model combines the advantages of in vitro and in vivo approaches in studying the cytotoxic effect of compounds, since ascitic cells grow in the context of the organism (in vivo), and the intraperitoneal administration of drug ensures its direct contact with tumor cells (in vitro). The experiments were performed using female C57BL/6 mice, which were injected intraperitoneally with 2 × 10^5 ascitic cells on day zero. The mice were divided into six groups of ten animals each.
(§1) Lab animals. Thre-e to four-month-old male and female C57Bl/6 mice from the breeding colony of the Institute of Cytology and Genetics, SB RAS, were used in the study. The animals were kept on sawdust in plastic cages with 5–7 mice per cage, with free access to ground food (“Laboratorkorm”, Moskow, Russia) and tap water. All experiments were performed in accordance with protocols approved by the Animal Care and Use Committee of the Institute of Cytology and Genetics. Also, all experimental procedures were performed in accordance with the Directive 2010/63/EU for animal experiments.
(§2) Tumor models. The experimental tumor used was Lewis Lung Carcinoma (LLC) and Krebs-2. The animals were treated with tpc and the Tdp1 inhibitor 3ba two days after tumor transplantation. The tumor was transplanted into the muscles of the thigh by 0.2 million cells per mouse. Tpc (Sindan Pharma SRL, Romania) was administered intraperitoneally at a single dose of 0.5 mg/kg; Tdp1 inhibitor 3ba was administrated intraperitoneally at a single dose of 20, 40, or 80 mg/kg (for Krebs-2), or 120 mg/kg (for LLC) in 15% dimethyl sulfoxide (DMSO)–10% Tween-80 suspension in water (0.2 mL of suspension per mouse) simultaneously with tpc. Control mice were injected with a DMSO-Tween-80 mixture into the stomach.
(§3) Statistical analysis. The experimenter measuring and calculating the primary animal data (tumor size, lifespan) was blinded. After unblinding, the animal data were statistically processed using oneway ANOVA. Post-hoc testing was completed using Turkey’s Honestly Significant Difference (HSD). p < 0.05 was considered to be statistically significant. The statistical package […] version 12.5 was used for analysis. All results are expressed as mean ± SEM.
As to `CC[C@@]1(O)C(=O)OCc2c1cc1n(c2=O)Cc2cc3c(CN(C)C)c(O)ccc3nc2-1` [tpc, topotecan, reference compound], the “number of tumor cells in ascites” value came out at 950 mln.

For a further test, the system named is Lewis carcinoma. The test can be described thus: Lifespan of mice with ascites variant of Lewis carcinoma. Type of test: in vivo. The settings on record: monotherapy at selected doses (tpc 0.5 mg/kg or 3ba 120 mg/kg), unreliable, p > 0.05. The procedure:
We then examined the effect of 3ba in combination with tpc on the lifespan of mice. C57BL/6 mice were intraperitoneally inoculated with the ascites variant of Lewis carcinoma. Group 1: control without treatment; group 2: tpc 0.5 mg/kg intraperitoneally; group 3: tpc and 3ba intraperitoneally 120 mg/kg; and group 4: 3ba 120 mg/kg only.
as §1, §2, §3
On to `CC[C@@]1(O)C(=O)OCc2c1cc1n(c2=O)Cc2cc3c(CN(C)C)c(O)ccc3nc2-1` [tpc, topotecan, reference compound], for which the prolongation of life was 13–19%.
